Counter-ions that a name gives are not always drawn.

For the first series, the target named is T1, 5HT1A (Rattus norvegicus, UniProt P19327).
T1 construct: prepared from brain of rats or HEK293 cells, which expressed the receptor; from tissue; host or cells: rat brain membranes
T1 sequence (P19327 1-422): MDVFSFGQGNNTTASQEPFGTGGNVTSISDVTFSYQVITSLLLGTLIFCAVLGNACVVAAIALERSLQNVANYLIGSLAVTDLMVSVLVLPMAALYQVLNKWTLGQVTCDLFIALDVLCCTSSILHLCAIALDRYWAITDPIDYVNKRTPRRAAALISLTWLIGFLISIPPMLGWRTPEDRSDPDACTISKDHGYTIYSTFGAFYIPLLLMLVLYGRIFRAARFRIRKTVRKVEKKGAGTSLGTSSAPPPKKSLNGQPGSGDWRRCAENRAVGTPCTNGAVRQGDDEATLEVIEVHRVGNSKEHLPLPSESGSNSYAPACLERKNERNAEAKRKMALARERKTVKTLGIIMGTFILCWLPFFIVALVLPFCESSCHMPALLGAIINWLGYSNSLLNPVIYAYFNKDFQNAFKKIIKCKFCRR
The experiment in a line: radioligand binding to serotonin receptor, cell membrane sample, Ki by Cheng-Prusoff.
Conditions: not given
As for the experimental part: (§1) A mixture of radioactive ligands and some cardinal numbers of test compounds was incubated with a sample of cell membrane, which was prepared from brain of rats or HEK293 cells, which expressed the receptor, under the following conditions. Then, the sample was filtered by suction on a Whatman GF/C. Radioactivity on the filter was encountered by the use of a liquid scintillation counter. 50% Inhibitory concentration values (IC50 values) of each selective binding were calculated for test compounds and the Ki value was obtained by applying an equation of Cheng-Prusoff [Biochem. Pharmacol. 22 (1973) 3099-3108] Ki=IC50/(1+[L]/Kd).
In general, Ki refers to the dissociation constant of the complex between target and ligand, obtained from inhibition or displacement. `C=CCNC1COc2cccc3[nH]cc(c23)C1` (stereo not drawn) [Compound 19-7] yielded a Ki of 19 nM.

`CCCN(CCC)C1COc2cccc3[nH]cc(c23)C1` (stereo not drawn) [Compound 19-5] displayed a Ki of 10 nM.

The compound `CSc1ccc2[nH]cc3c2c1OCC(N(C)C)C3` (stereo not drawn) [Compound 46-3] yielded a Ki of 18 nM.

On to `c1cc2c3c(c[nH]c3c1)CC(NC1CC1)CO2` (stereo not drawn) [Compound 19-19], for which affinity was put at a Ki of 3.8 nM.

Still in this series, the particulars now being: rat hippocampus membranes, 1 nM [3H] 8-OH-DPAT, 25° C. 30 min; read-out: Ki value (nM) ±SE 5-HT1A.
Take `NC1COc2cccc3[nH]cc(c23)C1` (stereo not drawn) [Compound 8-1, 2,7,8,9-Tetrahydro-6-oxa-2-azabenzo[c,d]azulen-8-ylamine]: the inhibition constant (Ki) is 36 nM.

Take `CN(C)C1CC(=O)c2cccc3[nH]cc(c23)C1` (stereo not drawn) [Compound 19-1, Dimethyl-(2,7,8,9-tetrahydro-6-oxo-2-azabenzo[cd]azulen-8-yl)amine]: the Ki is 81 nM.

Take `CCc1ccc2[nH]cc3c2c1OCC(N(C)C)C3` (stereo not drawn) [Compound 41, (5-Ethyl-2,7,8,9-tetrahydro-6-oxa-2-azabenzo[cd]azulen-8-yl)dimethylamine]: the Ki was found to be 57 nM.

With `CN(C)C1COc2cccc3[nH]c(Br)c(c23)C1` (stereo not drawn) [Compound 21, (1-Bromo-2,7,8,9-tetrahydro-6-oxa-2-azabenzo[cd]azulen-8-yl)dimethylamine], the Ki was found to be 14 nM.

For the next series, the target named is T2, 5HT6 (Homo sapiens, UniProt P50406).
T2 construct: expressed in transfected cells; host or cells: HEK293
T2 sequence (P50406 whole entry, species assumed): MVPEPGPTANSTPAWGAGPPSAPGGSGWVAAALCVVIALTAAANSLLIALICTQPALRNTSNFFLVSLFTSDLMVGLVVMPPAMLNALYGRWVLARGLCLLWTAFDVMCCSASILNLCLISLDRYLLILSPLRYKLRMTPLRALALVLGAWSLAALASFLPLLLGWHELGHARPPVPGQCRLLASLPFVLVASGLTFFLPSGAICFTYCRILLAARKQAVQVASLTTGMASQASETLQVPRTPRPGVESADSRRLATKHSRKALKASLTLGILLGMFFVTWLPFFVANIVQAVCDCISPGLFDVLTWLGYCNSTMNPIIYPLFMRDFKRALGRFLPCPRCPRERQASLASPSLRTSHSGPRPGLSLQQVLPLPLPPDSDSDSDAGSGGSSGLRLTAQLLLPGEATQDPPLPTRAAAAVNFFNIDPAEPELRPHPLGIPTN
The series is described as above.
Conditions: not given
As for the experimental part: as §1
`CN(C)C1COc2cccc3c2c(cn3S(=O)(=O)c2cccc(Br)c2)C1` (stereo not drawn) [Compound 20-12] registered a Ki of 2.7 nM.

As to `CN(C)C1COc2c(Br)ccc3c2c(cn3S(=O)(=O)c2ccccc2)C1` (stereo not drawn) [Compound 20-18], the affinity, expressed as Ki, was 22 nM.

For the compound `CN(C)C1COc2cccc3c2c(cn3S(=O)(=O)c2ccc(F)cc2)C1` (stereo not drawn) [Compound 20-19], the Ki came to 12 nM.

On to `CN(C)C1CC(=O)c2cccc3c2c(cn3S(=O)(=O)c2ccccc2)C1` (stereo not drawn) [Compound 20-1, (2-Benzenesulfonyl-2,7,8,9-tetrahydro-6-oxo-2-azabenzo[cd]azulen-8-yl)dimethylamine oxalate], for which the affinity, expressed as Ki, was 1.7 nM.

The compound `CNC1COc2cccc3c2c(cn3S(=O)(=O)c2ccccc2)C1` (stereo not drawn) [Compound 36-2] came in with a Ki of 8.5 nM.

In turn, `CN(C)C1COc2cccc3c2c(cn3S(=O)(=O)c2ccccc2Br)C1` (stereo not drawn) [Compound 20-13] registered a Ki of 3.9 nM.

The compound `CN(C)C1COc2cccc3c2c(cn3S(=O)(=O)c2cc(Cl)ccc2Cl)C1` (stereo not drawn) [Compound 20-17] came in with a Ki of 29 nM.

Regarding `COc1ccc(S(=O)(=O)n2cc3c4c(cccc42)OCC(N(C)C)C3)cc1` (stereo not drawn) [Compound 20-14], the Ki was 22 nM.

In turn, `CN(C)C1COc2cccc3c2c(cn3S(=O)(=O)/C=C/c2ccccc2)C1` (stereo not drawn) [Compound 20-16] displayed a Ki of 22 nM.

As for `CN(C)C1COc2c(C#N)ccc3[nH]cc(c23)C1` (stereo not drawn) [Compound 48, 8-Dimethylamino-2,7,8,9-tetrahydro-6-oxa-2-azabenzo[cd]-azulene-5-carbonitrile], the affinity, expressed as Ki, was 1 nM.

Compound `CN(C)C1COc2c(C=NO)ccc3[nH]cc(c23)C1` (stereo not drawn) [Compound 47, 8-Dimethylamino-2,7,8,9-tetrahydro-6-oxa-2-azabenzo[cd]-azulene-5-carbaldehyde Oxime] displayed a Ki of 78 nM.

Turning to `CN(C)C1COc2cccc3c2c(cn3S(=O)(=O)c2cccc3ccccc23)C1` (stereo not drawn) [Compound 20-5], the Ki is 0.49 nM.

Regarding `CN(C)C1COc2c(C=O)ccc3[nH]cc(c23)C1` (stereo not drawn) [Compound 46-1, 8-Dimethylamino-2,7,8,9-tetrahydro-6-oxa-2-azabenzo[cd]-azulene-5-carbaldehyde], the Ki came out at 28 nM.

Take `COc1cccc(S(=O)(=O)n2cc3c4c(cccc42)OCC(N(C)C)C3)c1` (stereo not drawn) [Compound 20-24]: affinity was put at a Ki of 3.2 nM.

Compound `CN(C)C1COc2cccc3c2c(cn3S(=O)(=O)c2ccc(Br)cc2)C1` (stereo not drawn) [Compound 20-11] gave a Ki of 5.7 nM.

Staying with this series, now noted: rat 5-HT6 (HEK293), 8 nM [3H] 5HT 25° C. 120 min or 4 nM [3H] LSD 37° C. 60 min; read-out: Ki value (nM) ±SE 5-HT6.
Consider `CN(C)C1COc2cccc3c2c(cn3S(=O)(=O)c2ccc(Cl)s2)C1` (stereo not drawn) [Compound 20-21], for which the Ki stood at 2.7 nM.

Consider `COc1ccc(S(=O)(=O)n2cc3c4c(cccc42)OCC(N(C)C)C3)cc1OC` (stereo not drawn) [Compound 20-15], for which the Ki is 29 nM.

As for `CN(C)C1COc2cccc3c2c(cn3S(=O)(=O)c2ccc(Cl)cc2)C1` (stereo not drawn) [Compound 20-6], the Ki stood at 2.7 nM.

With `CN(C)C1COc2cccc3c2c(cn3S(=O)(=O)c2ccc(F)cc2F)C1` (stereo not drawn) [Compound 20-22], the Ki worked out at 26 nM.

`CN(C)C1COc2cccc3c2c(cn3S(=O)(=O)c2cc(F)c(Br)cc2F)C1` (stereo not drawn) [Compound 20-20]: the Ki worked out at 11 nM.

On to `COc1ccc(OC)c(S(=O)(=O)n2cc3c4c(cccc42)OCC(N(C)C)C3)c1` (stereo not drawn) [Compound 20-23], for which the Ki was 9.9 nM.

Turning to `CN(C)C1COc2cccc3c2c(cn3S(=O)(=O)c2ccc(-c3ccon3)s2)C1` (stereo not drawn) [Compound 20-25], the Ki is 36 nM.

Tested on in the next series: not given
Test: not given
Conditions: not given
As a reminder, the melting point is the temperature, or range, at which the solid turns liquid. For `CN(C)C1COc2cccc3c2c(cn3S(=O)(=O)c2ccc(C(F)(F)F)cc2)C1` (stereo not drawn) (as salt: oxalate) [Compound 20-10], the melting point was 119 to 122 °C (dec.).

For `CNC1COc2cccc3[nH]cc(c23)C1` (stereo not drawn) (as salt: oxalate) [Compound 19-2], the melting point lay within 112 to 116 °C.

Consider `CN(C)C1COc2cccc3c2c(cn3S(=O)(=O)c2ccc(Br)cc2)C1` (stereo not drawn) (as salt: oxalate) [Compound 20-11], for which the melting point was 147 to 150 °C (dec.).

On to `N[C@@H]1COc2cccc3[nH]cc(c23)C1`, for which the melting point was 202 to 203 °C.

Regarding `CN(C)C1COc2cccc3c2c(cn3S(=O)(=O)c2ccccc2Br)C1` (stereo not drawn) (as salt: oxalate) [Compound 20-13], the melting point is 173 to 176 °C (dec.).

In the case of `CN(C)C1COc2cccc3c2c(cn3S(=O)(=O)c2cc(Cl)ccc2Cl)C1` (stereo not drawn) (as salt: oxalate) [Compound 20-17], the melting point was 161 to 163 °C (dec.).

Take `c1cc2c3c(c[nH]c3c1)CC1(CO2)OCCO1`: the melting point is 200 to 202 °C.

Turning to `CN(C)C1COc2c(Br)ccc3c2c(cn3S(=O)(=O)c2ccccc2)C1` (stereo not drawn) [Compound 20-18], the melting point lay in the range of 89 to 90 °C.

In the case of `COc1ccc(S(=O)(=O)n2cc3c4c(cccc42)OCC(N(C)C)C3)cc1OC` (stereo not drawn) (as salt: oxalate) [Compound 20-15], the melting point is 123 to 126 °C (dec.).

Regarding `CNC1COc2cccc3c2c(cn3S(=O)(=O)c2ccccc2)C1` (stereo not drawn) (as salt: oxalate) [Compound 36-2], the melting point was 208 to 213 °C (dec.).

Consider `NC1COc2cccc3[nH]cc(c23)C1` (stereo not drawn) [Compound 8-1, 2,7,8,9-Tetrahydro-6-oxa-2-azabenzo[c,d]azulen-8-ylamine], for which the melting point fell in the range of 172 to 173 °C.

In turn, `C=CCNC1COc2cccc3[nH]cc(c23)C1` (stereo not drawn) [Compound 19-7] yielded a melting point of 112 to 113 °C.

Turning to `CN(C)C1COc2cccc3c2c(cn3S(=O)(=O)c2ccc(-c3ccon3)s2)C1` (stereo not drawn) (as salt: oxalate) [Compound 20-25], the melting point is 113 to 115 °C (dec.).

Turning to `CN(C)C1COc2cccc3c2c(cn3S(=O)(=O)c2ccc(Cl)cc2)C1` (stereo not drawn) (as salt: oxalate) [Compound 20-6], the melting point was 114 to 118 °C (dec.).

Take `CN(C)C1COc2cccc3c2c(cn3S(=O)(=O)c2cccc(Br)c2)C1` (stereo not drawn) (as salt: oxalate) [Compound 20-12]: the melting point was 168 to 171 °C (dec.).

Regarding `CCCN(CCC)C1COc2cccc3[nH]cc(c23)C1` (stereo not drawn) [Compound 19-5], the melting point is 60 to 61 °C.

Turning to `CN(C)C1COc2cccc3c2c(cn3S(=O)(=O)c2cc(F)c(Br)cc2F)C1` (stereo not drawn) (as salt: oxalate) [Compound 20-20], the melting point is 128 to 131 °C (dec.).

For the compound `OC1COc2cccc3[nH]cc(c23)C1` (stereo not drawn), the melting point lay within 169 to 170 °C.

Regarding `CN(C)C1COc2cccc3c2c(cn3S(=O)(=O)c2ccc(F)cc2)C1` (stereo not drawn) (as salt: oxalate) [Compound 20-19], the melting point was 143 to 144 °C (dec.).

Turning to `CN(C)C1COc2cccc3[nH]c(Br)c(c23)C1` (stereo not drawn) [Compound 21, (1-Bromo-2,7,8,9-tetrahydro-6-oxa-2-azabenzo[cd]azulen-8-yl)dimethylamine], the melting point was in the range of 170 to 172 °C.

Take `COc1ccc(OC)c(S(=O)(=O)n2cc3c4c(cccc42)OCC(N(C)C)C3)c1` (stereo not drawn) (as salt: oxalate) [Compound 20-23]: the melting point is 147 to 150 °C (dec.).

Turning to `CN(C)C1COc2cccc3c2c(cn3S(=O)(=O)c2cccs2)C1` (stereo not drawn) (as salt: oxalate) [Compound 20-9], the melting point was 142 to 144 °C (dec.).

For the compound `COc1ccc(S(=O)(=O)n2cc3c4c(cccc42)OCC(N(C)C)C3)cc1` (stereo not drawn) (as salt: oxalate) [Compound 20-14], the melting point is 140 to 142 °C (dec.).

As to `CN(C)C1COc2cccc3c2c(cn3S(=O)(=O)c2ccc(Cl)s2)C1` (stereo not drawn) (as salt: oxalate) [Compound 20-21], the melting point is 154 to 156 °C (dec.).

Take `CSc1ccc2[nH]cc3c2c1OCC(N(C)C)C3` (stereo not drawn) [Compound 46-3]: the melting point was 112 to 113 °C.

In the case of `CN(C)C1COc2cccc3c2c(cn3S(=O)(=O)/C=C/c2ccccc2)C1` (stereo not drawn) (as salt: oxalate) [Compound 20-16], the melting point was 169 to 171 °C (dec.).

Take `CN(C)C1COc2cccc3c2c(cn3S(=O)(=O)c2ccc(F)cc2F)C1` (stereo not drawn) (as salt: oxalate) [Compound 20-22]: the melting point was 163 to 164 °C (dec.).

`c1cc2c3c(c[nH]c3c1)CC(NC1CC1)CO2` (stereo not drawn) [Compound 19-19] displayed a melting point of 130 to 131 °C.

Turning to `CN(C)C1COc2cccc3c2c(cn3S(=O)(=O)c2cccc3ccccc23)C1` (stereo not drawn) [Compound 20-5], the melting point was 148 to 149 °C.

As for `COc1cccc(S(=O)(=O)n2cc3c4c(cccc42)OCC(N(C)C)C3)c1` (stereo not drawn) [Compound 20-24], the melting point was 103 to 104 °C.

For the origin of these results see patent US6858640B2, “Tricyclic indole compounds having affinity for serotonin receptor” (Shionogi & Co., Ltd., priority 2000, dated 2005).
